Results: patent US20060079453A1, “Hla binding peptides and their uses” (priority 2002, published 2006)
Read-outs that look alike come from different tables or passages of the source. No end group written: not given here.

Tests used:
HLA-DR DRB1*0101 (DR1) = HLA-DR DRB1*0101 (DR1) (Homo sapiens, UniProt P01903+P01911, A100R/D57E/F55L/F60I/F76Y/I96L/L162R/M171V/P40L/Q125E/R42F/V115G/Y59C); assay: biochemical; type: binding
HLA-DR DRB1*0401 (DR4) = HLA-DR DRB1*0401 (DR4) (Homo sapiens, UniProt P01903+P01911, A100K/A169T/F76Y/I96L/K127E/L162R/M171V/N62H/P40V/Q125Y/R42H/S133A/S149N/S66Y/V115G/V209L/W38E); assay: biochemical; type: binding
HLA-DR DRB1*0405 (DR4) = HLA-DR DRB1*0405 (DR4) (Homo sapiens, UniProt P01903+P01911, A100R/A169T/D86S/F76Y/I96L/K127E/L162R/M171V/N62H/P40V/Q125Y/R42H/S133A/S149N/S66Y/V115G/V209L/W38E); assay: biochemical; type: binding; details: DRB1 *0405
HLA-DR DRB1*0701 (DR7) = HLA-DR DRB1*0701 (DR7) (Homo sapiens, UniProt P01903+P01911, A100R/A102G/A103Q/D57E/D86V/E43K/F76Y/K127E/L162R/M171V/P40G/Q125H/Q99D/R33Q/R42Y/R54Q/S133A/S66F/T210M/V115G/Y107V/Y59L/Y89S); assay: biochemical; type: binding
HLA-DR DRB1*0901 (DR9) = HLA-DR DRB1*0901 (DR9) (Homo sapiens, UniProt P01903+P01911, A100R/A103E/D57H/D86V/F55Y/F60I/F76Y/I96F/K127E/L162R/M171V/P40D/Q125H/Q99R/R33Q/R42F/S133A/S66N/T210M/V115G/W38K/Y107V/Y59G/Y89S); assay: biochemical; type: binding; details: DRB1 *0901
HLA-DR DRB1*1101 (DR11) = HLA-DR DRB1*1101 (DR11) (Homo sapiens, UniProt P01903+P01911, A100R/A169T/A87E/I96F/K41T/L162R/M171V/P40S/Q125H/Q178H/Q39Y/Q99D/R42S/S66Y/T262R/V115G/W38E); assay: biochemical; type: binding
Sequence of HLA-DR DRB1*1101 (DR11) (P01903 26-254 limits assumed, other chains not shown): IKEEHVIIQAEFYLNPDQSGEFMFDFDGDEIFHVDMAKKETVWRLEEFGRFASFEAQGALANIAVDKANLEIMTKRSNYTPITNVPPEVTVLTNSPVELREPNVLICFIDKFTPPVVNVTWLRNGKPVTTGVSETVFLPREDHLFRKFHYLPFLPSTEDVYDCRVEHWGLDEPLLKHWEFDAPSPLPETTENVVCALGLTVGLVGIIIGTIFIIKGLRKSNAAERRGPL

HLA-DR DRB1*1302 (DR13) = HLA-DR DRB1*1302 (DR13) (Homo sapiens, UniProt P01903+P01911, A100E/A169T/K41T/L162R/M171V/P40S/Q125H/Q178H/Q39Y/Q99D/R42S/S66N/T262R/V115G/W38E/Y61H); assay: biochemical; type: binding; details: DRBI *1302
Sequence of HLA-DR DRB1*1302 (DR13) (P01903 26-254 limits assumed, other chains not shown): as above

HLA-DR DRB3*0101 (DR52) = HLA-DR DRB3*0101 (DR52) (Homo sapiens, UniProt P01903+P79483); assay: biochemical; type: binding
HLA-DR DRB5*0101 (DR51) = HLA-DR DRB5*0101 (DR51) (Homo sapiens, UniProt P01903+Q30154); assay: biochemical; type: binding
[1] = molecular target: HLA-DQ DQA1*0301/B*0301 (DQ7) (Homo sapiens, UniProt P01909+P01920, A209T/C70Q/DUP78-78/E183D/F237L/G63E/I129T/K197E/L178F/L74F/L98V/Q57E/Q76R/S185I/S97I/T49S/V73L); assay: biochemical; type: binding
[2] = molecular target: HLA-DQ DQA1*0501/B*0201 (DQ2) (Homo sapiens, UniProt P01909+P01920, A45G/A70V/D89A/E106A/E77G/E98D/H199R/L107V/N214S/P84L/P87L/T103K/T109R/T172A/T60S/V78E/V99I/Y58L/Y62S/Y69I/Y79F); assay: biochemical
[3] = molecular target: HLA-DQ DQA1*0301/B*0302 (DQ8) (Homo sapiens, UniProt P01909+P01920, A209T/A45G/C70Q/D89A/DUP78-78/E183D/E77G/F237L/G63E/H199R/I129T/K197E/L178F/L74F/L98V/Q57E/Q76R/S185I/S97I/T217I/T49S/V73L/Y58L); assay: biochemical
HLA-DR DRB1*0301 (DR3) = HLA-DR DRB1*0301 (DR3) (Homo sapiens, UniProt P01903+P01911, A100K/A102G/A103R/A169T/F55Y/I96L/K41T/L162R/M171V/P40S/Q125H/Q178H/Q39Y/R42S/S66N/T106N/T262R/W38E/Y61H); assay: biochemical; type: binding
Sequence of HLA-DR DRB1*0301 (DR3) (P01903 26-254 limits assumed, other chains not shown): as above

HLA-DR DRB1*0802 (DR8) = HLA-DR DRB1*0802 (DR8) (Homo sapiens, UniProt P01903+P01911, A100R/A103L/A169T/F76Y/H45Y/I96F/K41T/L162R/M171V/P40S/Q125H/Q178H/Q39Y/Q99D/R218S/R42G/S66Y/V115G/W38E); assay: biochemical; type: binding
HLA-DR DRB1*1501 (DR15) = HLA-DR DRB1*1501 (DR15) (Homo sapiens, UniProt P01903+P01911); assay: biochemical; type: binding; details: DRBI *1501
HLA-DR DRB4*0101 (DR53) = HLA-DR DRB4*0101 (DR53) (Homo sapiens, UniProt P01903+P13762, G164S); assay: biochemical; type: binding; details: DRB4 *0101
HLA-DR DRB5*0201 = type: binding, human; details: read-out: DRB5 *0201

Substance	IC50 (HLA-DR DRB1*0101 (DR1); DRB1 *0101) [nM]	IC50 (HLA-DR DRB1*0401 (DR4); DRB1 *0401) [nM]	IC50 (HLA-DR DRB1*0405 (DR4)) [nM]	IC50 (HLA-DR DRB1*0701 (DR7); DRB1 *0701) [nM]	IC50 (HLA-DR DRB1*0901 (DR9)) [nM]	IC50 (HLA-DR DRB1*1101 (DR11); DRB1 *1101) [nM]	IC50 (HLA-DR DRB1*1302 (DR13)) [nM]	IC50 (HLA-DR DRB3*0101 (DR52)) [nM]	IC50 (HLA-DR DRB5*0101 (DR51); DRB5 *0101) [nM]	IC50 [1] [nM]	IC50 [2] [nM]	IC50 [3] [nM]	IC50 (HLA-DR DRB1*0301 (DR3)) [nM]	IC50 (HLA-DR DRB1*0802 (DR8)) [nM]	IC50 (HLA-DR DRB1*1501 (DR15)) [nM]	IC50 (HLA-DR DRB4*0101 (DR53)) [nM]	other results
WKRMEVGQQAVEVWQ	62	24	94	46100	14700	512	159	> 42200	4300	13700	159	12100	–	–	–	–	–
ISLLLIQSWLEPVQF	184	885	0.86	83	–	2680	120	6760	> 9960	> 89300	5230	562	27900	> 33300	60	2.5	–
SAAPLRTITADTFRK	–	–	1460	3650	–	–	–	–	–	301	1100	> 46700	–	28100	–	–	–
IDVWLGGLAENFLPY	–	–	–	–	–	–	–	–	–	204	13	138	–	–	–	–	–
RLFDNASLRAHRLHQ	89	77	–	–	23800	–	84	11400	557	–	–	> 36200	97	15000	85	3210	–
QHLCGSHLVEALYLV	170	13000	9820	86	7420	> 10500	7620	14800	32000	2550	359	8410	48600	> 54400	–	1480	–
(15A)RQTTLKAAA	–	–	–	–	–	–	–	–	–	–	–	–	–	–	–	–	IC50 (HLA-DR DRB1*0101 (DR1); read-out: DRB1 *0101): 4.2 nM; IC50 (HLA-DR DRB1*0401 (DR4); read-out: DRB1 *0401): 0.31 nM; IC50 (HLA-DR DRB1*1101 (DR11); read-out: DRB1 *1101): 1.8 nM; IC50 (HLA-DR DRB5*0101 (DR51); read-out: DRB5 *0101): 9.5 nM; IC50 (HLA-DR DRB5*0201): 3100 nM
GSHLVEALYLVCGER	525	8290	4610	560	5390	> 10500	8030	> 18700	29300	> 89300	677	2490	> 187000	> 54400	1350	372	–
GLALLSEAVLRGQAL [GLALLSEAVLRGQAL]	83	11	1440	4610	15100	2580	1220	> 38200	–	107	6740	17000	816	2000	–	3.5	–
YAR(15A)RQTTLKAAA	–	–	–	–	–	–	–	–	–	–	–	–	–	–	–	–	IC50 (HLA-DR DRB1*1101 (DR11); read-out: DRB1 *1101): 1.2 nM; IC50 (HLA-DR DRB5*0101 (DR51); read-out: DRB5 *0101): 0.94 nM; IC50 (HLA-DR DRB5*0201): 62 nM
MSYNLLGFLQRSSNT	–	–	433	8870	8970	3070	1330	51800	9	–	–	> 51200	108000	900	6.8	4660	–
LQLHVDKAVSGLRSL	–	9.7	13600	3210	> 78900	910	53	1040	76	88	7590	7840	22	801	2710	31	–
AAFAAAKTAAAFA	–	–	–	–	–	–	–	–	–	–	–	–	–	–	–	–	IC50 (HLA-DR DRB1*0101 (DR1); read-out: DRB1 *0101): 1.3 nM; IC50 (HLA-DR DRB1*0401 (DR4); read-out: DRB1 *0401): 0.19 nM; IC50 (HLA-DR DRB1*0701 (DR7); read-out: DRB1 *0701): 67 nM; IC50 (HLA-DR DRB1*1101 (DR11); read-out: DRB1 *1101): 4.6 nM; IC50 (HLA-DR DRB3*0101 (DR52); read-out: DRB3 *0101): 20000 nM; IC50 (HLA-DR DRB5*0101 (DR51); read-out: DRB5 *0101): 25 nM; IC50 ([1]; read-out: DQB1*0301): 49 nM; IC50 (HLA-DR DRB5*0201): 6.4 nM
YAR(15A)SQTTLKAKT	–	–	–	–	–	–	–	–	–	–	–	–	–	–	–	–	IC50 (HLA-DR DRB1*0101 (DR1); read-out: DRB1 *0101): 2.4 nM; IC50 (HLA-DR DRB1*0401 (DR4); read-out: DRB1 *0401): 0.78 nM; IC50 (HLA-DR DRB1*1101 (DR11); read-out: DRB1 *1101): 2.5 nM; IC50 (HLA-DR DRB5*0101 (DR51); read-out: DRB5 *0101): 1.4 nM; IC50 (HLA-DR DRB5*0201): 48 nM
IDVWLGGLAKNFLPY	–	–	–	–	–	–	–	–	–	–	> 4170	–	–	–	–	–	–
